Numbering of substitutions follows the chain as printed. Positions of bridges follow the written chain, without caps; N, C: chain ends. Non-standard residues stand in square brackets, D forms with d. Residues, ends and D or L forms follow the SMILES beside them.
What was measured:
[1] = molecular target: T1, recombinant human GBA1 (rhGBA1, Cerezyme) (Homo sapiens, UniProt P04062, R534H); assay: rhGBA1 Ki / kinetic studies with varied 4-MU substrate; type: biochemical; conditions: 4MU substrate 0.05-5 mM, no pre-incubation, mean ± SD from 3 technical triplicates
T1 construct: purchased Cerezyme
T1 sequence (P04062 40-536 R534H): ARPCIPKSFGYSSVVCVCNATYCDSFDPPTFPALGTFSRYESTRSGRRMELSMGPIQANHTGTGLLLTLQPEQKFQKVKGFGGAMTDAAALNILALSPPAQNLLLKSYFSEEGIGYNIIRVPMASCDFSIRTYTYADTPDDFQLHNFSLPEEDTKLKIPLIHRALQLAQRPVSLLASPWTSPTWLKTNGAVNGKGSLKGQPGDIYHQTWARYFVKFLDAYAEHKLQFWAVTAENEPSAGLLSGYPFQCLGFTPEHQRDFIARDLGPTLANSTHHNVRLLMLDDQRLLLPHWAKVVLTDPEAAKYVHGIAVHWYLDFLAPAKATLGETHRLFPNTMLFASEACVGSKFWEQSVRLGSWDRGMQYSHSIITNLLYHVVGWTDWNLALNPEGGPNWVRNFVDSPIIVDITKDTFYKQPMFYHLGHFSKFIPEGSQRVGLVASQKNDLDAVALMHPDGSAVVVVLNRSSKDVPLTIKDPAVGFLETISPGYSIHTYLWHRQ
Method: Based on the pull-down validation, a set of eight cyclic peptides (L1, L2, L4, L6, D1, D8, D12 and D13) were identified, synthesized, and evaluated for their inhibitory potency against recombinant human GBA1 (rhGBA1, Cerezyme®) and their selectivity over human β-glucosidases GBA2 and GBA3. Half-maximum inhibitory concentration (IC50) values for β-glucosidases were determined in vitro by measuring hydrolysis of 4-methylumbelliferyl-β-D-glucopyranoside (4-MU-β-D-Glu) fluorogenic substrate.
Selective Cyclic Peptide Ligands as GBA1 Stabilizers Katzy et al.
Figure S4. Inhibitory constant (Ki) values using increasing concentrations of 4-MU-beta-glucoside as fluorogenic substrate. Enzyme activity (nmol h-1 mg-1) versus MU substrate concentrations is plotted (See Table 1 for Ki values) for inhibitors L2, L4, L6, D1, D8, and D12, and corresponding Lineweaver Burk plots are shown on the right.
(1 picture or pasted object on this page, not shown here)
GBA1 Ki values were determined using the same incubation times and buffers as described above following a previously described protocol.6 4MU-β-D-glucopyranoside concentration was varied […]
between 0.05 mM and 5 mM. […]
(§1) 2.8. Thermostability assays in rhGBA (Cerezyme)
(§2) Varying concentrations of peptides were incubated with 1 µM rhGBA1 in 20 mM HEPES pH 7.0 with 100 mM NaCl, with a final DMSO concentration of 0.5 %, for 2 hours at room temperature. Melting

[2] = molecular target: T2, GBA1 in fibroblast lysates (Homo sapiens, UniProt P04062); assay: GBA1 inhibition in lysates of fibroblasts treated with peptides; type: cell-based; conditions: cells treated with peptides at increasing concentrations for 16 h, washed with PBS and homogenized; 4-MU assay
T2 construct: host or cells: human dermal fibroblasts
T2 sequence (P04062 40-536): T1 sequence (P04062 40-536 R534H) with H495R
Method: We further investigated GBA1 inhibition in cells. Human dermal fibroblasts were initially incubated with peptide concentrations ranging from 0.1 μM (from 0.001 μM for L4, D1 and D12) to 100 μM of each cyclic peptide for […]. […] To further confirm the inability of these peptides to cross the cell membrane, we conducted in situ competitive activity-based protein profiling (cABPP) experiments using RAW 264.7 monocyte/macrophage-like cells. […] RAW 264.7 cells were then treated with increasing concentrations of cyclic peptides (0, 0.1, 1, 10, and 100 μM) for 4 hours, followed by exposure to a cell-penetrant Bodipy red broad spectrum GBA activity-based probe (ABP), JJB75[58] at 10 nM for 2 hours (Fig. S5 for chemical structures, ESI ^†). […] This cABPP experiment further confirms that the peptides are unable to cross the cell membrane (Fig. S6, ESI ^†).
Selective Cyclic Peptide Ligands as GBA1 Stabilizers Katzy et al. […]
Table S1. IC50 values for GBA1 inhibition in fibroblast lysates. Cells were treated with the peptides at increasing concentrations for 16 h, washed with PBS and homogenized. Reported values are mean ± standard deviation from 3 technical triplicates. N.D.: not determined.
Peptide GBA1 in fibroblast lysates
(1 picture or pasted object on this page, not shown here) […]
2.6. In situ cell studies
Human fibroblasts (Cambrex-Lonza CC-2511) were cultured in complete DMEM/F12 growth medium supplemented with 10% (v/v) foetal calf serum and 0.1 % (w/v) penicillin/streptomycin at 37 °C and 5% CO2. Cells were seeded in 12-well plates during passage and the incubations were started when cells were 80% - 100% confluent. Peptides were added in 500 µL medium (10 and 50 µM final concentration) and incubated overnight. After incubation cells were washed three times with cold PBS and harvested in 30 µL lysis buffer (25 mM KPi, pH 6,5 supplemented with 0.1% Triton-X 100 (v/v) and protease inhibitor). Lysates were frozen at -80 °C until use. GlcCer and GlcSph lipids were quantified as described below. In parallel, enzyme activity in cell lysates was measured using 3.7 mM 4-methylumbeliferone (4MU)-β-D-glucopyranoside in 150 mM McIlvaine buffer pH 5.2 supplemented with 0.1% bovine serum albumin (BSA) (w/v), 0.1% Triton X-100 (v/v), and 0.2% sodium taurocholate (w/v) as described above (see Table S1). […]
PBS and harvested in ice cold water. Lysates were kept at -80 °C until extraction.
2.7. 2.5. GlcCer and GlcSph lipid analysis
Levels of GlcCer and GlcSph were determined with a modified acidic Bligh & Dyer extraction (Figure 2 and S5).7 Briefly, after addition of internal standards (C17-dh-Ceramide and 13C5-Glucosylsphingosine), lipids were separated in an organic and an aqueous phase. The separated phases were dried under N2 or in a concentrator. The dried organic lower phase was reconstituted in 0.1 M NaOH in MeOH and underwent microwave-assisted deacylation. After neutralization, the samples were dried. Both phases were further extracted and desalted with equal amounts of water and butanol. The butanol phases were taken up to dryness and the lipids were dissolved in MeOH and transferred to MS vials for analysis in a LC-MS/MS system as described previously.7
as §1, §2

Row | SMILES | Ki [1] [nM] | IC50 [2] [nM]
1 | CC[C@H](C)[C@H](NC(=O)[C@H](CC(C)C)NC(=O)[C@H](Cc1ccc(O)cc1)NC(=O)[C@H](Cc1ccc(O)cc1)NC(=O)[C@@H]1CSCC(=O)N[C@H](Cc2ccc(O)cc2)C(=O)N[C@@H](CCCNC(=N)N)C(=O)N[C@@H](C(C)C)C(=O)N1)C(=O)N[C@H](C(=O)N[C@H](C(=O)N[C@@H](CC(C)C)C(=O)N[C@@H](CC(=O)O)C(=O)N[C@@H](CS)C(N)=O)C(C)C)[C@@H](C)O [D1] ({CH2CO}-[dY]RVCYYLITVLDC-NH2; thioether N-4) | 0.9 ± 0.1 | 440
2 | CC(C)C[C@H](NC(=O)[C@@H](NC(=O)[C@H](CCCNC(=N)N)NC(=O)[C@@H]1CSCC(=O)N[C@H](Cc2ccc(O)cc2)C(=O)N[C@@H]([C@@H](C)O)C(=O)N2CCC[C@H]2C(=O)NCC(=O)N[C@@H](Cc2ccc(O)cc2)C(=O)N[C@@H](C(C)C)C(=O)N[C@@H](Cc2ccc(O)cc2)C(=O)N1)C(C)C)C(=O)N[C@@H](CCCCN)C(=O)N[C@@H](Cc1ccc(O)cc1)C(=O)N[C@@H](CS)C(N)=O [D8] ({CH2CO}-[dY]TPGYVYCRVLKYC-NH2; thioether N-8) | 13 ± 4 | 5160
3 | CC(C)C[C@@H]1NC(=O)CNC(=O)[C@H](CC(C)C)NC(=O)[C@@H](Cc2ccc(O)cc2)NC(=O)CSC[C@@H](C(N)=O)NC(=O)[C@H](CO)NC(=O)[C@H](CCCCN)NC(=O)[C@H](CC(C)C)NC(=O)[C@H](Cc2ccccc2)NC(=O)[C@H](CCCNC(=N)N)NC(=O)[C@H](Cc2ccc(O)cc2)NC(=O)[C@H](Cc2c[nH]c3ccccc23)NC1=O [D12] ({CH2CO}-[dY]LGLWYRFLKSC-NH2; thioether N-12) | 1 ± 0.4 | 334

Second part, the compound after the results:

Row | Ki [1] [nM] | IC50 [2] [nM] | SMILES
4 | 2 ± 1 | 67 | CC(C)C[C@@H]1NC(=O)CNC(=O)[C@H](Cc2ccccc2)NC(=O)[C@H](CC(C)C)NC(=O)[C@@H]2CCCN2C(=O)[C@H](Cc2ccc(O)cc2)NC(=O)CSC[C@@H](C(=O)N2CCC[C@H]2C(=O)N[C@@H](CC(N)=O)C(=O)N[C@@H](Cc2c[nH]c3ccccc23)C(=O)N[C@@H](Cc2ccccc2)C(=O)N2CCC[C@H]2C(=O)N[C@@H](Cc2ccc(O)cc2)C(=O)N[C@@H](CCC(N)=O)C(=O)N[C@@H](CS)C(N)=O)NC(=O)[C@H](CO)NC(=O)[C@H](Cc2ccccc2)NC1=O [L4] ({CH2CO}-YPLFGLFSCPNWFPYQC-NH2; thioether N-9)
5 | 1340 ± 203 | 22300 | CC[C@H](C)[C@@H]1NC(=O)[C@H](Cc2ccc(O)cc2)NC(=O)CSC[C@@H](C(N)=O)NC(=O)[C@H](Cc2c[nH]c3ccccc23)NC(=O)[C@H](CCC(N)=O)NC(=O)[C@H]([C@@H](C)CC)NC(=O)[C@H]([C@@H](C)CC)NC(=O)[C@@H]2CCCN2C(=O)[C@H](C(C)C)NC(=O)[C@H](Cc2ccc(O)cc2)NC(=O)[C@H](Cc2c[nH]c3ccccc23)NC(=O)[C@H](CO)NC1=O [L6] ({CH2CO}-YISWYVPIIQWC-NH2; thioether N-12)
6 | 42 ± 7 | 898 | CC[C@H](C)[C@H](NC(=O)[C@H](CCCNC(=N)N)NC(=O)[C@@H]1CSCC(=O)N[C@@H](Cc2ccc(O)cc2)C(=O)N[C@@H](C)C(=O)N[C@@H](Cc2ccc(O)cc2)C(=O)N[C@@H](Cc2c[nH]c3ccccc23)C(=O)N[C@@H](Cc2c[nH]c3ccccc23)C(=O)N[C@@H](CC(C)C)C(=O)N1)C(=O)N1CCC[C@H]1C(=O)N[C@@H](Cc1c[nH]c2ccccc12)C(=O)N[C@@H](CC(C)C)C(=O)N[C@@H](CO)C(=O)N[C@H](C(N)=O)C(C)C [L2] ({CH2CO}-YAYWWLCRIPWLSV-NH2; thioether N-7)
7 | – | 39700 | CC[C@H](C)[C@@H]1NC(=O)[C@H](CO)NC(=O)[C@H](CS)NC(=O)CNC(=O)CNC(=O)[C@H](CC(C)C)NC(=O)[C@H](Cc2ccc(O)cc2)NC(=O)[C@H](C(C)C)NC(=O)[C@H](CC(C)C)NC(=O)[C@H](CCCNC(=N)N)NC(=O)[C@@H]2CCCN2C(=O)[C@H](Cc2ccc(O)cc2)NC(=O)CSC[C@@H](C(N)=O)NC(=O)[C@H](CCC(=O)O)NC(=O)[C@H](CC(C)C)NC(=O)[C@H](CC(C)C)NC1=O [L1] ({CH2CO}-YPRLVYLGGCSILLEC-NH2; thioether N-16)
